Results on one compound are retold here after US20130022644A1, “NOVEL N-PHENYLACETAMIDE DERIVATIVES, WHICH INHIBIT THE ENZYME SOAT-1, AND PHARMACEUTICAL AND COSMETIC COMPOSITIONS CONTAINING THEM” (GALDERMA RESEACH & DEVELOPMENT, priority 2009, published 2013).

SMILES strings stand for the structures.

One data set concerns the target T1, enzyme ACAT-1 (Homo sapiens, UniProt P35610).
T1 construct: endogenous in cells; host or cells: HepG2
T1 sequence (P35610 1-550): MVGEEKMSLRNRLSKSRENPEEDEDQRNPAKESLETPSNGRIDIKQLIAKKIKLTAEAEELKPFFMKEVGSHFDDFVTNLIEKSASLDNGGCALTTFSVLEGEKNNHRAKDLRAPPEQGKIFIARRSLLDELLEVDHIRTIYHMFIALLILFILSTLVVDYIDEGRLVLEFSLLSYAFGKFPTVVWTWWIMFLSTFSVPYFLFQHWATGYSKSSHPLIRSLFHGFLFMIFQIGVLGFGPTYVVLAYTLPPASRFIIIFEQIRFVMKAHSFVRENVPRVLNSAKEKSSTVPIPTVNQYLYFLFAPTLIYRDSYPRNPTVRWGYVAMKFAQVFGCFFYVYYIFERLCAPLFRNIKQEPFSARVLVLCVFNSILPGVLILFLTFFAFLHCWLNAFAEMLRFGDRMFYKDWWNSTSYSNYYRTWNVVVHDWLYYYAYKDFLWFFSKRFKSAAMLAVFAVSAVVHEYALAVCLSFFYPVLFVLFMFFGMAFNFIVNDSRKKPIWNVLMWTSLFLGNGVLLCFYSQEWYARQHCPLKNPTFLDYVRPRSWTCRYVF
The data set is described as follows: HepG2 NBD-cholesterol fluorescence test for inhibitory activity towards the enzyme ACAT-1 (SOAT-1). Format: cell-based. Particulars: HepG2 cells, NBD-cholesterol 1 μg/ml, incubation 6 hours at 37° C., fluorescence ex 490 nm / em 540 nm. On the procedure:
The compounds (1) according to the invention, and also the pharmaceutically acceptable salts, solvates and/or hydrates thereof, have inhibitory properties on the enzyme SOAT-1. This inhibitory activity on the enzyme SOAT-1 is measured according to a HepG2 primary enzymatic test, as described in Example 3.
The compounds of formula (I) according to the invention were subjected to a test for evaluating their inhibitory activity towards the enzyme ACAT-1, inspired by the following publication: “Identification of ACAT1- and ACAT2-specific inhibitors using a novel, cell based fluorescence assay: individual ACAT uniqueness”, J. Lipid. Res. (2004) vol. 45, pages 378-386.
The principle of this test is based on the use of NBD-cholesterol, a cholesterol analogue whose fluorescence depends on its environment. When this molecule is in a polar environment, it is weakly fluorescent, whereas in a non-polar environment, it is strongly fluorescent. […]
The method below is applied: HepG2 cells are incubated in the presence of NBD-cholesterol (1 μg/ml) and of the test compound of formula (I) in black transparent-bottomed 96-well plates, at a rate of 30 000 cells per well. […] After addition of 50 μl of lysis buffer (10 mM NaPO4, 1% Igepal), the plates are shaken for 5 minutes and the fluorescence is read (excitation at 490 nm, emission at 540 nm) on a Fusion machine (Perkin-Elmer). […]

For the compound `CCCC1(C)C(=O)N(CC(=O)Nc2c(C(C)C)cccc2C(C)C)C(=O)N1c1ccc(C)cc1` (centres unmarked) [Compound 1, N-(2,6-Diisopropylphenyl)-2-(4-methyl-2,5-dioxo-4-propyl-3-p-tolylimidazolidin-1-yl)acetamide], the melting point (as a rule, the temperature of the solid-liquid transition) was found to be 186 °C. In addition, at enzyme ACAT-1, the IC50 (commonly the concentration that inhibits the measured activity by half) worked out at 9 nM.
